In patent publication US9242970B2 (ACTELION PHARMACEUTICALS LTD., priority 2010, dated 2016):
Like-named read-outs stand apart in the source and are kept apart here.

How the values were obtained:
human orexin-2 receptor = human orexin-2 receptor (Homo sapiens (Human), UniProt O43614); experiment: In vitro assay: intracellular calcium measurements (FLIPR), antagonistic activity; type: cell-based; details: CHO cells, 3 nM orexin-A, marked values are geometric means of n = 2-6, read-out: IC50 OX2
Method: (§1) In Vitro Assay: Intracellular Calcium Measurements:
(§2) Chinese hamster ovary (CHO) cells expressing the human orexin-1 receptor and the human orexin-2 receptor, respectively, are grown in culture medium (Ham F-12 with L-Glutamine) containing 300 µg/ml G418, 100 U/ml penicillin, 100 µg/ml streptomycin and 10% heat inactivated fetal calf serum (FCS). The cells are seeded at 20,000 cells/well into 384-well black clear bottom sterile plates (Greiner). The seeded plates are incubated overnight at 37° C. in 5% CO2.
(§3) Fluorescence is measured for each well at 1 second intervals, and the height of each fluorescence peak is compared to the height of the fluorescence peak induced by 3 nM orexin-A with vehicle in place of antagonist. […] Optimized conditions were achieved by adjustment of pipetting speed and cell splitting regime. The calculated IC50 values may fluctuate depending on the daily cellular assay performance. Fluctuations of this kind are known to those skilled in the art.

human orexin-1 receptor = human orexin-1 receptor (Homo sapiens (Human), UniProt O43613); experiment: as above; type: cell-based; details: CHO cells, 3 nM orexin-A, marked values are geometric means of n = 2-6, read-out: IC50 OX1
Method: as §1, §2, §3

[1] = compound incubation time of 10 min

human orexin-2 receptor, sequence (O43614 whole entry): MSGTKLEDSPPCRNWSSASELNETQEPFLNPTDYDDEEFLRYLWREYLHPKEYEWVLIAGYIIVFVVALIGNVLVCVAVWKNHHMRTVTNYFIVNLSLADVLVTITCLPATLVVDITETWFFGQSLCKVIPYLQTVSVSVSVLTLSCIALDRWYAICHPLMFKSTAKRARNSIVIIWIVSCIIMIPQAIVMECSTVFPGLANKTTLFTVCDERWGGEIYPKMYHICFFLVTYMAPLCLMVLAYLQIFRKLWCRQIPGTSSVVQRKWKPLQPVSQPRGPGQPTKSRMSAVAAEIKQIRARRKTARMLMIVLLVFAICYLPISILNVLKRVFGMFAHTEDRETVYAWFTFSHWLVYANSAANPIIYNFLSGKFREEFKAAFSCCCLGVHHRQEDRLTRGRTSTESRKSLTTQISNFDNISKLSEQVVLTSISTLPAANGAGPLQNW
human orexin-1 receptor, sequence (O43613 whole entry): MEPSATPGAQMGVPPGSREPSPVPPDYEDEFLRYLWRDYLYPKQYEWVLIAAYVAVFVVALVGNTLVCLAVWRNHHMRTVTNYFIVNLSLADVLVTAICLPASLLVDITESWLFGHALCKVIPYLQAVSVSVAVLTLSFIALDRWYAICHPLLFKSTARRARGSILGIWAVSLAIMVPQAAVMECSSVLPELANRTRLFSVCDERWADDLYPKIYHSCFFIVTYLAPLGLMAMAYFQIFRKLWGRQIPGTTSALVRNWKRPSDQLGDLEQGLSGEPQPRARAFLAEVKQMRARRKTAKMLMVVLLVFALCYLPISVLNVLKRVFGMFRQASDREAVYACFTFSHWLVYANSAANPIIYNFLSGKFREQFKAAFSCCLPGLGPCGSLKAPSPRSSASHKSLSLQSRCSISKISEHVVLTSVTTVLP

| SMILES | IC50 (human orexin-2 receptor; compound incubation 120 min) | IC50 (human orexin-1 receptor; compound incubation 120 min) | IC50 (human orexin-2 receptor; [1]) | IC50 (human orexin-1 receptor; [1]) |
| --- | --- | --- | --- | --- |
| COc1cncc(OC)c1C1CCCC(=O)N1Cc1cccc(-c2csc(C)n2)c1 (stereo not drawn) [Example 62, 6-(3,5-dimethoxypyridin-4-yl)-1-(3-(2-methylthiazol-4-yl)benzyl)piperidin-2-one] | 33 nM | 25 nM |  |  |
| COc1ccc(CN2C(=O)C(C)CC2c2c(OC)cccc2OC)cc1OC(F)(F)F (stereo not drawn) [Example 404, 5-(2,6-dimethoxyphenyl)-1-(4-methoxy-3-(trifluoromethoxy)benzyl)-3-methylpyrrolidin-2-one] | 513 nM | 965 nM |  |  |
| COc1cccc(Cl)c1[C@@H]1C[C@H](Cl)C(=O)N1Cc1ccc(OC(F)(F)F)cc1 (racemic) [Example 306, rac-(3S*,5S*)-3-chloro-5-(2-chloro-6-methoxyphenyl)-1-(4-(trifluoromethoxy)benzyl)pyrrolidin-2-one] | 108 nM | 740 nM |  |  |
| COc1cccc(OC)c1[C@@H]1C[C@@H](OC)C(=O)N1Cc1ccc(OC(F)(F)F)cc1 (racemic) [Example 262, rac-(3R*,5S*)-5-(2,6-dimethoxyphenyl)-3-methoxy-1-(4-(trifluoromethoxy)benzyl)pyrrolidin-2-one] |  |  | 6940 nM | 3380 nM |
| COc1cccc(OC)c1C1CCCC(=O)N1Cc1cccc(N2CCCC2)c1 (stereo not drawn) [Example 24, 6-(2,6-dimethoxyphenyl)-1-(3-(pyrrolidin-1-yl)benzyl)piperidin-2-one] | 31 nM | 22 nM |  |  |
| COc1cc(OC)c(C2CCCC(=O)N2Cc2ccc(OC(F)(F)F)cc2)c(OC)c1 (stereo not drawn) [Example 172, 1-(4-(trifluoromethoxy)benzyl)-6-(2,4,6-trimethoxyphenyl)piperidin-2-one] |  |  | 106 nM | 330 nM |
| COc1cccc(OC)c1C1CN(C)CC(=O)N1Cc1ccc(OC(F)(F)F)cc1 (stereo not drawn) [Example 268, 6-(2,6-dimethoxyphenyl)-4-methyl-1-(4-(trifluoromethoxy)benzyl)piperazin-2-one] |  |  | 410 nM | 1270 nM |
| COc1c(F)ccc(F)c1[C@@H]1C[C@@H](O)C(=O)N1Cc1ccc(OC(F)(F)F)cc1 (racemic) [Example 313, rac-(3R*,5S*)-5-(3,6-difluoro-2-methoxyphenyl)-3-hydroxy-1-(4-(trifluoromethoxy)benzyl)pyrrolidin-2-one] | 1030 nM | 1460 nM |  |  |
| COc1cccc(OC)c1C1CC(C)C(=O)N1Cc1cccc(-c2cscn2)c1 (stereo not drawn) [Example 150, 5-(2,6-dimethoxyphenyl)-3-methyl-1-(3-(thiazol-4-yl)benzyl)pyrrolidin-2-one] | 47 nM | 7 nM |  |  |
| COc1cccc(OC)c1C1CCCC(=O)N1Cc1ccnc(-c2ccccn2)c1 (stereo not drawn) [Example 50, 1-([2,2′-bipyridin]-4-ylmethyl)-6-(2,6-dimethoxyphenyl)piperidin-2-one] | 119 nM | 39 nM |  |  |
| COc1cccc(F)c1[C@@H]1C[C@H](Cl)C(=O)N1Cc1ccc(OC(F)(F)F)cc1 (racemic) [Example 305, rac-(3S*,5S*)-3-chloro-5-(2-fluoro-6-methoxyphenyl)-1-(4-(trifluoromethoxy)benzyl)pyrrolidin-2-one] | 96 nM | 396 nM |  |  |
| COc1cccc(OC)c1C1CC(C)C(=O)N1Cc1cccc(-n2nccn2)c1 (stereo not drawn) [Example 149, 1-(3-(2H-1,2,3-triazol-2-yl)benzyl)-5-(2,6-dimethoxyphenyl)-3-methylpyrrolidin-2-one] | 77 nM | 6 nM |  |  |
| COc1ccccc1C1CCCC(=O)N1Cc1ccc(OC(F)(F)F)cc1 (stereo not drawn) [Example 237, 6-(2-methoxyphenyl)-1-(4-(trifluoromethoxy)benzyl)piperidin-2-one] |  |  | 635 nM | 3490 nM |
| COc1cccc(F)c1[C@@H]1C[C@H](F)C(=O)N1Cc1ccc(OC(F)(F)F)cc1 (racemic) [Example 301, rac-(3S*,5S*)-3-fluoro-5-(2-fluoro-6-methoxyphenyl)-1-(4-(trifluoromethoxy)benzyl)pyrrolidin-2-one] | 66 nM | 1700 nM |  |  |
| COc1cccc(OC)c1C1CCC(=O)N1Cc1ccc(OC(F)(F)F)cc1 (stereo not drawn) [Example 196, 5-(2,6-dimethoxyphenyl)-1-(4-(trifluoromethoxy)benzyl)pyrrolidin-2-one] |  |  | 158 nM | 724 nM |
| COc1cccc(OC)c1C1CC(C)C(=O)N1Cc1ccc2sc3ccccc3c2c1 (stereo not drawn) [Example 426, 1-(dibenzo[b,d]thiophen-2-ylmethyl)-5-(2,6-dimethoxyphenyl)-3-methylpyrrolidin-2-one] | 8 nM | 6 nM |  |  |
| COc1cccc(OC)c1C1CCCC(=O)N1Cc1cccc(-c2cccnc2)c1 (stereo not drawn) [Example 7, 6-(2,6-dimethoxyphenyl)-1-(3-(pyridin-3-yl)benzyl)piperidin-2-one] | 55 nM | 71 nM |  |  |
| COc1cccc(OC)c1C1CCCC(=O)N1Cc1ccc2c(c1)OC(F)(F)O2 (stereo not drawn) [Example 182, 1-((2,2-difluorobenzo[d][1,3]dioxol-5-yl)methyl)-6-(2,6-dimethoxyphenyl)piperidin-2-one] |  |  | 178 nM | 283 nM |
| COc1cccc(OC)c1C1CC(C)C(=O)N1Cc1cc2ccccc2n1C (stereo not drawn) [Example 388, 5-(2,6-dimethoxyphenyl)-3-methyl-1-((1-methyl-1H-indol-2-yl)methyl)pyrrolidin-2-one] | 132 nM | 83 nM |  |  |
| COc1cccc(OC)c1C1CCCC(=O)N1Cc1ccc(OC(F)F)nc1 (stereo not drawn) [Example 177, 1-((6-(difluoromethoxy)pyridin-3-yl)methyl)-6-(2,6-dimethoxyphenyl)piperidin-2-one] |  |  | 92 nM | 354 nM |
| COc1cccc(OC)c1C1CCCC(=O)N1Cc1ccc(-n2cccn2)cc1 (stereo not drawn) [Example 168, 1-(4-(1H-pyrazol-1-yl)benzyl)-6-(2,6-dimethoxyphenyl)piperidin-2-one] |  |  | 453 nM | 1820 nM |
| O=C1CCCC(c2c(Cl)cccc2Cl)N1Cc1ccc(OC(F)(F)F)cc1 (stereo not drawn) [Example 228, 6-(2,6-dichlorophenyl)-1-(4-(trifluoromethoxy)benzyl)piperidin-2-one] |  |  | 456 nM | 2970 nM |
| COc1cccc(OC)c1C1CC(C)C(=O)N1Cc1cccc(-c2csc(C)n2)c1 (stereo not drawn) [Example 133, 5-(2,6-dimethoxyphenyl)-3-methyl-1-(3-(2-methylthiazol-4-yl)benzyl)pyrrolidin-2-one] | 24 nM | 2 nM |  |  |
| COc1cccc(OC)c1C1CCCCC(=O)N1Cc1cnn(-c2ccccc2)c1 (stereo not drawn) [Example 94, 7-(2,6-dimethoxyphenyl)-1-((1-phenyl-1H-pyrazol-4-yl)methyl)azepan-2-one] | 378 nM | 121 nM |  |  |
| COc1ccc2c(c1C1CCCC(=O)N1Cc1cccc(-c3ccccc3)c1)OCO2 (stereo not drawn) [Example 457, 1-([1,1′-biphenyl]-3-ylmethyl)-6-(5-methoxybenzo[d][1,3]dioxol-4-yl)piperidin-2-one] | 30 nM | 59 nM |  |  |
| COc1cccc(OC)c1C1CC(C)CC(=O)N1Cc1ccc(OC(F)(F)F)cc1 (stereo not drawn) [Example 173, 6-(2,6-dimethoxyphenyl)-4-methyl-1-(4-(trifluoromethoxy)benzyl)piperidin-2-one] |  |  | 297 nM | 537 nM |
| CCOc1cccc(F)c1C1CC(C)C(=O)N1Cc1ccc(OC(F)F)c(Cl)c1 (stereo not drawn) [Example 375, 1-(3-chloro-4-(difluoromethoxy)benzyl)-5-(2-ethoxy-6-fluorophenyl)-3-methylpyrrolidin-2-one] | 65 nM | 715 nM |  |  |
